Experimental data as given in US20240277658A1, “NLRP3 ACTIVATORS FOR USE IN THE TREATMENT OF INFECTIOUS DISEASES OR CANCER BY ACTIVATING NLRP3 INFLAMMASOME” (ALBERT-LUDWIGS-UNIVERSITÄT FREIBURG, priority 2020, published 2024).
Values joined by “and” are separate entries in the source; they are usually repeats but may differ in a detail not shown here. Equal values may be shown once. Read-outs that look alike come from different tables or passages of the source.

Legend:
[1] = test system: BMDCs; experiment: LDH release (lytic cell death, pyroptosis) from LPS-primed BMDCs; format: cell-based, mouse; details: compound 50 μM; for Average (% positive control): LDH release, positive control nigericin 5 μM; for cytotoxicity at 50 µM: Mus musculus, BMDC, LPS-primed BMDCs
Summary of the method: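 Mouse BMDCs (7-9 days differentiated, GM-CSF) primed with 50 ng ml^−1 E. coli K12 LPS for 3 hours, then exposed 3 hours to compounds (50 μM unless indicated) or activators (nigericin 5 μM; R837, CL097 100 μM). Lytic death measured as LDH release by colorimetric assay, triplicate wells.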

[2] = target: T1, NLRP3 inflammasome (Mus musculus, UniProt Q8R4B8); experiment: IL-1β release from LPS-primed BMDCs (ELISA) as readout of NLRP3 inflammasome activation; format: cell-based; details: compound 50 μM; for Average (% positive control): IL-1β release, positive control nigericin 5 μM; for Average IL-1β / IL-1β: LPS-primed BMDCs; for IL-1β: single replicates
T1 construct: endogenous in cells; host or cells: primary mouse bone marrow-derived dendritic cells (BMDCs), LPS-primed
Summary of the method: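 NLRP3 inflammasome activation was read out as IL-1β released into the supernatant, measured by ELISA. Murine BMDCs were primed with LPS (50 ng ml^−1, 3 hours), then incubated with compounds for 3 hours, with each condition run in three technical replicates. Nigericin at 5 μM acted as the positive control activator, and IL-1β release was also expressed as a percentage of that control.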

[3] = read-out: Average LDH release (% of max.)
[4] = single replicates, read-out: LDH release (% of max.)

T1 sequence (Q8R4B8 whole entry): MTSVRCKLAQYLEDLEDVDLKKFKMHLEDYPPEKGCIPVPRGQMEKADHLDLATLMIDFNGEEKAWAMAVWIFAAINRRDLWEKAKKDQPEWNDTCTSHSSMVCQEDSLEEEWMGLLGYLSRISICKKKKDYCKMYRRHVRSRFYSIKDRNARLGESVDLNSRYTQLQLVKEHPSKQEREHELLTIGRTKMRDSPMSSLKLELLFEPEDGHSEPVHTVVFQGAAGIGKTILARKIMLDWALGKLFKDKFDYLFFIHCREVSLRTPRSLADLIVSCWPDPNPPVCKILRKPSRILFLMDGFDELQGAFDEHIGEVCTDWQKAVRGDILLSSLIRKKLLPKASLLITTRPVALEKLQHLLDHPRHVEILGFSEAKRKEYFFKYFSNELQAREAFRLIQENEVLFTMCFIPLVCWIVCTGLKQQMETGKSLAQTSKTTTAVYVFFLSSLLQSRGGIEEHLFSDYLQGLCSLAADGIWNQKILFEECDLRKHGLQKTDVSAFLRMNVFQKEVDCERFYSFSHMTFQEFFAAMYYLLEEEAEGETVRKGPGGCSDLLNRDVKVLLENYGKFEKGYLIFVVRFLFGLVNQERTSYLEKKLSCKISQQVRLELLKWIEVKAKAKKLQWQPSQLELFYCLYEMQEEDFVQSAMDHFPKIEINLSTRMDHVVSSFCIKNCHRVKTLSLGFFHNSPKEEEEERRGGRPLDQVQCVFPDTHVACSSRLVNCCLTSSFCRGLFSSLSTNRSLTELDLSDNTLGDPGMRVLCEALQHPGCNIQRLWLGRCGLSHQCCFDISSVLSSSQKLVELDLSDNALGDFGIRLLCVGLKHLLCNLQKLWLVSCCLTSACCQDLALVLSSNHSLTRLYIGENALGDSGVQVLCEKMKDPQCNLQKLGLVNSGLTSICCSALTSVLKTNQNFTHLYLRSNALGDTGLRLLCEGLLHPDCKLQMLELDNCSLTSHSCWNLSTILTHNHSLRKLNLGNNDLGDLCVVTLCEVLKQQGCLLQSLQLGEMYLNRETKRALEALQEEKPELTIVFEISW

Structure (SMILES)	Average (% positive control) [1]	cytotoxicity at 50 µM [1, 3]	cytotoxicity at 50 µM [1, 4]	Average (% positive control) [2]	Average IL-1β [2]	IL-1β [2]
CC(C)c1ccc(NC(=O)Nc2ccccc2)cc1 [L01.047, 1-phenyl-3-[4-(propan-2-yl)phenyl]urea]	16.514 % positive control	12.1%	12.1%	7.117 % positive control	0.510 ng/mL	0.505 ng/mL and 0.513 ng/mL and 0.512 ng/mL
O=C1CN(c2ccccc2)C(=O)N1Cc1nc(-c2ccc(Cl)cc2)no1 [L01.049, 3-{[3-(4-chlorophenyl)-1,2,4-oxadiazol-5-yl]-methyl}-1-phenylimid-azolidine-2,4-dione]	16.093 % positive control	11.8%	12.6%	4.189 % positive control	0.300 ng/mL	0.330 ng/mL and 0.251 ng/mL and 0.319 ng/mL
COCc1cc(F)ccc1NC(=O)NC(c1nc(-c2cccnc2)no1)C(C)C (stereo not drawn) [L01.054, 1-[4-fluoro-2-(methoxy-methyl)phenyl]-3-{2-methyl-1-[3-(pyridin-3-yl)-1,2,4-oxadiazol-5-yl]propyl}urea]	11.431 % positive control	8.36%	7.79%	0.947 % positive control	0.068 ng/mL	0.067 ng/mL and 0.062 ng/mL and 0.074 ng/mL
COc1cccc(C)c1NC(=O)NC(c1nc(-c2cccnc2)no1)C(C)C (stereo not drawn) [L01.056, 1-(2-methoxy-6-methyl-phenyl)-3-{2-methyl-1-[3-(pyridin-3-yl)-1,2,4-oxadiazol-5-yl]propyl}-urea]	13.256 % positive control	9.7%	9.34%	0.905 % positive control	0.065 ng/mL	0.060 ng/mL and 0.073 ng/mL and 0.062 ng/mL
O=C(Nc1ccccc1)Nc1ccc(OC(F)(F)F)cc1 [L01.061, 1-phenyl-3-[4-(trifluoro-methoxy)phenyl]urea]	19.349 % positive control	14.2%	15.9%	6.360 % positive control	0.456 ng/mL	0.508 ng/mL and 0.439 ng/mL and 0.420 ng/mL
O=C(NCc1nc(-c2cccnc2)no1)Nc1cccc2cnccc12 [L01.062, 1-(isoquinolin-5-yl)-3-{[3-(pyridin-3-yl)-1,2,4-oxadiazol-5-yl]-methyl}urea]	18.117 % positive control	13.3%	13.4%	1.141 % positive control	0.082 ng/mL	0.084 ng/mL and 0.087 ng/mL and 0.074 ng/mL
O=C(Nc1ccccc1)Nc1ccc(NC(=O)c2ccco2)cc1 [L01.064, N-{4-[(phenylcarbamo-yl)amino]phenyl}furan-2-carboxamide]	11.958 % positive control	8.75%	8.96%	1.014 % positive control	0.073 ng/mL	0.065 ng/mL and 0.054 ng/mL and 0.100 ng/mL
O=C(Nc1ccccc1)Nc1ccc(NC2CCOCC2)cc1 [L01.065, 1-{4-[(oxan-4-l)amino]-phenyl}-3-phenylurea]	12.397 % positive control	9.07%	8.41%	0.928 % positive control	0.067 ng/mL	0.052 ng/mL and 0.070 ng/mL and 0.077 ng/mL
O=C(Nc1ccccc1)Nc1ccc2c(c1)CCC2 [L01.066, 3-(2,3-dihydro-1H-inden-5-yl)-1-phenyl-urea]	19.592 % positive control	14.3%	15.6%	3.698 % positive control	0.265 ng/mL	0.346 ng/mL and 0.256 ng/mL and 0.193 ng/mL
COc1cccc(NC(=O)NCc2nc(Cc3ccccc3)no2)c1 [L01.067, 3-[(3-benzyl-1,2,4-oxadiazol-5-yl)methyl]-1-(3-methoxyphenyl)-urea]	9.336 % positive control	6.83%	6.48%	0.942 % positive control	0.068 ng/mL	0.064 ng/mL and 0.069 ng/mL and 0.070 ng/mL
Cc1cccc(-c2noc(CN3C(=O)CN(c4ccccc4)C3=O)n2)c1 [L01.069, 3-{[3-(3-methylphenyl)-1,2,4-oxadiazol-5-yl]-methyl}-1-phenylimid-azolidine-2,4-dione]	12.713 % positive control	9.3%	9.2%	1.941 % positive control	0.139 ng/mL	0.131 ng/mL and 0.138 ng/mL and 0.149 ng/mL
Cc1ccc(N2C(=O)C(=O)N(Cc3nc(-c4ccsc4)no3)C2=O)cc1 [L01.071, 1-(4-methylphenyl)-3-{[3-(thiophen-3-yl)-1,2,4-oxadiazol-5-yl]-methyl}imidazolidine-2,4,5-trione]	11.833 % positive control	8.66%	9.01%	1.598 % positive control	0.115 ng/mL	0.116 ng/mL and 0.097 ng/mL and 0.131 ng/mL
Cc1cccc(NC(=O)Nc2ccccc2)c1 [L01.077, 3-(3-methylphenyl)-1-phenylurea]	7.980 % positive control	5.84%	5.28%	1.368 % positive control	0.098 ng/mL	0.067 ng/mL and 0.165 ng/mL and 0.062 ng/mL
O=C(NCc1nc(C2CC2)no1)Nc1cccc(F)c1 [L01.081, 3-[(3-cyclopropyl-1,2,4-oxadiazol-5-yl)methyl]-1-(3-fluorophenyl)urea]	8.656 % positive control	6.33%	6.87%	1.093 % positive control	0.078 ng/mL	0.075 ng/mL and 0.072 ng/mL and 0.088 ng/mL
CC(C)Oc1ccccc1NC(=O)NCc1nc(C2CC2)no1 [L01.083, 3-[(3-cyclopropyl-1,2,4-oxadiazol-5-yl)-methyl]-1-[2-(propan-2-yloxy)phenyl]urea]	8.649 % positive control	6.33%	6.8%	1.180 % positive control	0.085 ng/mL	0.080 ng/mL and 0.077 ng/mL and 0.097 ng/mL
O=C(Nc1ccccc1)Nc1cccc(NC(=O)C2CC2)c1 [L01.084, N-{3-[(phenylcarbamo-yl)amino]phenyl}cyclo-propanecarboxamide]	8.054 % positive control	5.89%	6%	1.362 % positive control	0.098 ng/mL	0.083 ng/mL and 0.111 ng/mL and 0.099 ng/mL
O=C(NCc1nc(-c2cccs2)no1)Nc1ccccc1 [L01.087, 1-phenyl-3-{[3-(thio-phen-2-yl)-1,2,4-oxadiazol-5-yl]meth-yl}urea]	9.562 % positive control	7%	6.79%	3.589 % positive control	0.257 ng/mL	0.237 ng/mL and 0.239 ng/mL and 0.296 ng/mL
Cc1ccc(NC(=O)NCc2nc(Cc3ccccc3)no2)cc1 [L01.088, 3-[(3-benzyl-1,2,4-oxadiazol-5-yl)methyl]-1-(4-methylphenyl)urea]	7.174 % positive control	5.25%	5.68%	0.866 % positive control	0.062 ng/mL	0.069 ng/mL and 0.058 ng/mL and 0.059 ng/mL
O=C1CN(c2ccccc2)C(=O)N1Cc1nc(-c2cccs2)no1 [L01.089, 1-phenyl-3-{[3-(thio-phen-2-yl)-1,2,4-oxadiazol-5-yl]meth-yl}imidazolidine-2,4-dione]	10.402 % positive control	7.61%	8.67%	4.526 % positive control	0.324 ng/mL	0.313 ng/mL and 0.316 ng/mL and 0.344 ng/mL
O=C(Nc1cccc(Cl)c1)N1CCOCC1c1nc(-c2cccs2)no1 (stereo not drawn) [L01.090, N-(3-chlorophenyl)-3-[3-(thiophen-2-yl)-1,2,4-oxadiazol-5-yl]morph-oline-4-carboxamide]	20.610 % positive control	15.1%	15.3%	1.044 % positive control	0.075 ng/mL	0.079 ng/mL and 0.077 ng/mL and 0.069 ng/mL
